Measured values: article PMC9393165 (Scientific Reports, 2022)

Legend:
[1] = diltiazem 30 mg three times daily; day 7 after KT; CYP3A5 expressers; cited from earlier work
[2] = Early-morning blood pressure and pulse rate in kidney transplant recipients; format: in vivo, human; conditions: for Diastolic blood pressure / Pulse rate: diltiazem 30 mg every 12 h
Experimental: All patients received a fixed dose of omeprazole 40 mg/day.
For calculation of AUC/D and C0/D, values of AUC and C0 were dose-adjusted by dividing the observed values by the dose recorded on the day of blood collection. Early-morning blood pressures were measured on the same day of blood collection for pharmacokinetic analysis by a ward nurse as part of a routine examination, during rest in a seated position with a calibrated and well-maintained automatic sphygmomanometer. Delayed graft function (DGF) was defined as failure of the kidney graft to function immediately, with the need for dialysis in the first 7 days post-KT. Episode of biopsy-proven acute rejection (BPAR) during 3 months post-KT was diagnosed based on histologic findings in indication kidney graft biopsy according to Banff 2015 criteria.

[3] = day 3 post-transplantation, CYP3A5 expressers (n = 11), mean ± SD
[4] = day 3 post-transplantation, CYP3A5 non-expressers (n = 9), mean ± SD
[5] = day 7 post-transplantation, CYP3A5 expressers (n = 11), mean ± SD
[6] = day 7 post-transplantation, CYP3A5 non-expressers (n = 9), mean ± SD

COc1ccc([C@@H]2Sc3ccccc3N(CCN(C)C)C(=O)[C@@H]2OC(C)=O)cc1 [Diltiazem]
Effect of diltiazem coadministration on tacrolimus dose-adjusted trough concentration (C0/D) [1]: Significantly higher | Diastolic blood pressure ([2]; day 1 post-transplantation, CYP3A5 expressers (n = 11), mean ± SD): 89.2 ± 13.3 mmHg | Pulse rate ([2]; day 1 post-transplantation, CYP3A5 expressers (n = 11), median (IQR)): 82.0 (74.0, 86.0) bpm | Diastolic blood pressure ([2]; day 1 post-transplantation, CYP3A5 non-expressers (n = 9), mean ± SD): 87.4 ± 14.8 mmHg | Pulse rate ([2]; day 1 post-transplantation, CYP3A5 non-expressers (n = 9), median (IQR)): 82.0 (73.0, 86.0) bpm | Diastolic blood pressure [2, 3]: 86.8 ± 13.5 mmHg | Pulse rate [2, 3]: 86.6 ± 15.4 bpm | Diastolic blood pressure [2, 4]: 84.3 ± 14.0 mmHg | Pulse rate [2, 4]: 82.4 ± 7.2 bpm | Diastolic blood pressure [2, 5]: 77.8 ± 13.3 mmHg | Pulse rate [2, 5]: 80.2 ± 11.2 bpm | Diastolic blood pressure [2, 6]: 81.0 ± 7.3 mmHg | Pulse rate [2, 6]: 81.8 ± 8.6 bpm | Effects on blood pressure ([2]; diltiazem 60 mg/day, first week post-KT): No significant effects on blood pressure
